In US20080021049A1, “Treatment Of Diet-Related Conditions Using Phospholipase-A2 Inhibitors Comprising Indoles And Related Compounds” (priority 2004, published 2008):
Like-named read-outs stand apart in the source and are kept apart here.

Tests used:
[1] = biological target: human pancreatic secreted PLA2 (hps PLA2) (Homo sapiens, UniProt P04054); conditions: reported literature data; cited from earlier work
[2] = biological target: porcine pancreatic secreted PLA2 (pps PLA2) (Sus scrofa, UniProt P00592); conditions: reported literature data; cited from earlier work
Sequence of porcine pancreatic secreted PLA2 (pps PLA2) (P00592 23-146): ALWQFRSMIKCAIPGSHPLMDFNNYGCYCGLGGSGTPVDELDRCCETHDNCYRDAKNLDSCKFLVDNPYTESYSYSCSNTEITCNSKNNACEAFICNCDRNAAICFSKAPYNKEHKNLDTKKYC

[3] = Pharmokinetic study, bioavailability (Example 6C); format: in vivo, mice
Method: This example characterized ILY-4001 [2-(3-(2-amino-2-oxoacetyl)-1-(biphenyl-2-ylmethyl)-2-methyl-1H-indol-4-yloxy)acetic acid], alternatively referred to herein as methyl indoxam, with respect to activity, as determined by IC50 assay (Example 6A), with respect to cell absorption, as determined by in-vitro Caco-2 assay (Example 6B) and with respect to bioavailability, as determined using in-vivo mice studies (Example 6C).
Bioavailability was calculated as a ratio of AUC-oral/AUC-intravenous (IV). To determine this ratio, a first set of subject animals were given a measured intravenous (IV) dose of ILY-4001, followed by a determination of ILY-4001 levels in the blood at various time points after administration (e.g., 5 minutes through 24 hours). Another second set of animals was similarly dosed using oral administration, with blood levels of ILY-4001 determined at various time points after administration (e.g., 30 minutes through 24 hours). The level of ILY-4001 in systemic circulation were determined by generally accepted methods (for example as described in Evans, G., A Handbook of Bioanalysis and Drug Metabolism. Boca Raton, CRC Press (2004)). Specifically, […]/mass spectrometry/mass spectrometry (LC/MS/MS) analytical methods were used to quantitate plasma concentrations of ILY-4001 after oral and intravenous administration. […]

[4] = format: in vivo, mice; conditions: for body weight gain compared to wild-type control group: week 4 and week 10
[5] = format: in vivo, mice; conditions: low dose 25 mg/kg/day in diet
[6] = format: in vivo, mice; conditions: 10 weeks
Stability at low pH = format: physicochemical
human PLA2 IB enzyme = human PLA2 IB enzyme (Homo sapiens, UniProt P04054); conditions: pyrene substrate release from vesicles (Singer, Ghomashchi et al. 2002); read-out: IC50 versus the human PLA2 IB enzyme; cited from earlier work
Sequence of human PLA2 IB enzyme (P04054 23-148): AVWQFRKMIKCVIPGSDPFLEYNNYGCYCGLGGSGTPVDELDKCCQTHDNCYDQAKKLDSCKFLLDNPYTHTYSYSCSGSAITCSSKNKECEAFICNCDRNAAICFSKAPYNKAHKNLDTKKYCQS

mouse PLA2 IB enzyme = mouse PLA2 IB enzyme (Mus musculus, UniProt Q9Z0Y2); conditions: pyrene substrate release from vesicles (Singer, Ghomashchi et al. 2002); read-out: IC50 versus the mouse PLA2 IB enzyme; cited from earlier work
Sequence of mouse PLA2 IB enzyme (Q9Z0Y2 23-146): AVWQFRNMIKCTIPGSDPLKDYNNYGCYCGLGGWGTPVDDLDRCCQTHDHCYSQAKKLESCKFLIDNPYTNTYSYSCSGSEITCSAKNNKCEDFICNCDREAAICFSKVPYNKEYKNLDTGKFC

Caco-2 cells [7] = assay: Caco-2 permeability study (Example 6B)
Caco-2 cells [8] = system: Caco-2 cells

Sequence of human pancreatic secreted PLA2 (hps PLA2) (P04054 23-148): as the sequence (P04054 23-148) above

**Q.** With `Cc1c(CC(N)=O)c2c(OCC(=O)O)cccc2n1Cc1cccc(Cl)c1` as the compound, how does the IC50 [1] read?
**A.** 1.2 µM

**Q.** And the IC50 [2]?
**A.** 0.02 µM

**Q.** With `Cc1c(CC(N)=O)c2c(OCC(=O)O)cccc2n1Cc1ccccc1-c1ccccc1` as the compound, how does the IC50 [1] read?
**A.** 4.09 µM

**Q.** What about the IC50 [2] of the same compound?
**A.** 0.014 µM

**Q.** Which results are given for `Cc1c(CC(=O)NN)c2cc(OCCCC(=O)O)ccc2n1Cc1ccccc1`?
**A.** IC50 (μM) hps PLA2 [1]: no activity; IC50 (μM) pps PLA2 [2]: no activity

**Q.** Which IC50 [1] does the source give for `Cc1c(C(=O)C(N)=O)c2c(/C=C/C(=O)O)cccc2n1Cc1ccccc1` here?
**A.** > 100 µM

**Q.** For `Cc1c(C(=O)C(N)=O)c2c(CCC(=O)O)cccc2n1Cc1ccccc1`, which IC50 [1] is on record?
**A.** > 100 µM

**Q.** Which bioavailability ([3]; mouse, plasma, oral, 30 mg/kg, read-out: % F (bioavailability)) does the source give for `Cc1c(C(=O)C(N)=O)c2c(OCC(=O)O)cccc2n1Cc1ccccc1-c1ccccc1` [ILY-4001, 2-(3-(2-amino-2-oxoacetyl)-1-(biphenyl-2-ylmethyl)-2-methyl-1H-indol-4-yloxy)acetic acid] here?
**A.** 28%

**Q.** What about the “level of non-absorption from the GI tract into systemic circulation” value ([3]; oral 30 mg/kg) of the same compound?
**A.** ~72%

**Q.** And the “body weight gain modulation relative to PLA2 (−/−) mice” value ([4]; 25 mg/kg/d (low dose) in diet, ten weeks)?
**A.** comparable to that achieved in the PLA2 (−/−) mice

**Q.** And the “body weight gain modulation relative to PLA2 (−/−) mice” value ([4]; 25 mg/kg/d in diet, four weeks)?
**A.** approaching that achieved in the PLA2 (−/−) mice

**Q.** What about the “body weight gain compared to wild-type control group” value ([4]; 25 mg/kg/d in diet) of the same compound?
**A.** significantly reduced body weight gains

**Q.** What about the “body weight gain modulation relative to PLA2 (−/−) mice” value ([4]; 90 mg/kg/d in diet, four weeks) of the same compound?
**A.** approaching that achieved in the PLA2 (−/−) mice

**Q.** What about the “body weight gain compared to wild-type control group” value ([4]; 90 mg/kg/d in diet) of the same compound?
**A.** significantly reduced body weight gains

**Q.** What about the fasting glucose levels ([5]; week four) of the same compound?
**A.** moderately beneficial effect

**Q.** What about the fasting glucose levels ([5]; week ten) of the same compound?
**A.** a beneficial effect was not observed

**Q.** And the “plasma level of cholesterol” value ([6]; high dose 90 mg/kg/day in diet)?
**A.** substantially reduced

**Q.** And the “plasma level of triglycerides” value ([6]; high dose 90 mg/kg/day in diet)?
**A.** substantially reduced

**Q.** What about the “plasma level of cholesterol” value ([6]; low dose 25 mg/kg/day in diet) of the same compound?
**A.** substantially reduced

**Q.** And the “plasma level of triglycerides” value ([6]; low dose 25 mg/kg/day in diet)?
**A.** substantially reduced

**Q.** What about the “stability at low pH” value (Stability at low pH) of the same compound?
**A.** stable at low pH

**Q.** What about the IC50 (human PLA2 IB enzyme) of the same compound?
**A.** ~200 nM

**Q.** And the IC50 (mouse PLA2 IB enzyme)?
**A.** ~150 nM

**Q.** What about the “apparent permeability (Papp)” value (Caco-2 cells [7]; 50 ug/ml in apical well, sampled basolateral, Caco-2 monolayer) of the same compound?
**A.** around 1.66×10^−7 cm/s

**Q.** And the “absorption from the GI lumen” value (Caco-2 cells [7]; based on Caco-2 assays and pharmokinetic studies)?
**A.** relatively low absorption

**Q.** With Lucifer Yellow as the compound, how does the “apparent permeability (Papp)” value (Caco-2 cells [8]) read?
**A.** around 2.82×10^−7+/−0.37×10^−7 cm/s
